Eight compounds from patent publication US20250115597A1, “TYK2 INHIBITORS AND COMPOSITIONS AND METHODS THEREOF” (LYNK PHARMACEUTICALS CO. LTD., priority 2021, published 2025) can be followed below.

Series [1] concerns the target T1, Ba/F3-FL-TYK2-P760L cells (Homo sapiens, UniProt P29597, P760L, cells depend on it).
T1 construct: BaF3-FL-T2P760L (nM)
Kind of series: Anti-proliferative assay, Ba/F3-FL-TYK2-P760L cells (Cell-Titer Glo). It counts as cell-based. Conditions: 72 h, read-out: BaF3-FL-T2P760L IC50. In short, it runs like this: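 Compound exposure ran 72 h at 37 °C in 5% CO2 across nine 3-fold concentrations from a 20 μM top dose, added 24 h after seeding 2000 cells/well.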

A short description of series [2]: Microsomal metabolic stability assay. It counts as in vitro ADME. The following applies: pH 7.4, 0.5 mg/mL protein, 1 μM compound. The method, boiled down:
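Parent loss was tracked by LC/MS/MS at 0, 5, 15, 30 and 45 min, with half-life derived from the ln(% remaining)–time slope. Incubation at 37 °C, pH 7.4 phosphate/EDTA buffer: 0.5 mg/mL microsomes, 1 μM compound, NADPH-regenerated (2 mM).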

Series [3] in a line: Plasma protein binding by equilibrium dialysis. Type of series: in vitro ADME. The following applies: human plasma, equilibrium dialysis 5 hours at 37° C.; read-out: % Bound (human) (converted). As to the method: Plasma Protein Binding by Equilibrium Dialysis
Aliquots of test compound stock solution and warfarin stock solution were spiked into plasma to give the matrix solutions with theoretical concentrations of test compound at 0.2 and 2 μM or warfarin at 2 μM. Immediately transfer 50 μL of the spiked plasma solution suspension to a 96-well plate to act as T=0 control sample. Assemble the dialysis set up following the manufacturer's instructions. Load cells with 150 μL of plasma sample and dialyzed against equal volume of dialysis buffer (PBS). The assay is performed in duplicate. Cover the unit with gas permeable lid and incubate for 5 hours at 37° C. at 100 rpm in a constant temperature shaking box. At the end of incubation, remove lid and pipette 50 μL of post-dialysis samples from both buffer and plasma solution chambers into separated 96-well plate for analysis, respectively. Add 50 μL of plasma solution to the buffer samples, and an equal volume of PBS to the collected plasma solution samples. Shake the plate at 1000 rpm for 2 minutes and add 600 μL of 50% ACN/MeOH containing an appropriate internal standard (IS) to precipitate protein and release compound. Vortex at 1000 rpm for 10 minutes. Centrifuge for 10 minutes at 4000 rpm. Then transfer 75 μL of the supernatant to new 96-well plates for analysis. Add 150 μL of distilled water to each sample and mix for analysis by LC-MS/MS.
The free rate (% Unbound), binding rate (% Bound), and recovery rate (% Recovery) of the compound are calculated as follows: […]
(In equilibrium dialysis only unbound substance equilibrates across the membrane.)

Another series concerns the target T2, TYK2-JH2 domain (Homo sapiens, UniProt P29597).
T2 construct: IC50 on JH2 domain activity (nM)
Kind of series: Binding activity test for JH2 domain of TYK2 (Tb-antibody/tracer FRET). The following applies: for JAK1/TYK2 selectivity: ratio JAK1-JH2 IC50 / TYK2-JH2 IC50. The method, boiled down: (§1)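 FRET read-out after 60 min at 25° C plus overnight at 4° C; tracer displacement detected via Tb-labelled antibody on the JH2 domain. Dose-response used 11 points at 3-fold dilution.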

The target in the next series is T3, JAK1-JH2 domain (Homo sapiens, UniProt P23458).
T3 construct: IC50 on JH2 domain activity (nM)
T3 sequence (P23458 583-855 limits assumed): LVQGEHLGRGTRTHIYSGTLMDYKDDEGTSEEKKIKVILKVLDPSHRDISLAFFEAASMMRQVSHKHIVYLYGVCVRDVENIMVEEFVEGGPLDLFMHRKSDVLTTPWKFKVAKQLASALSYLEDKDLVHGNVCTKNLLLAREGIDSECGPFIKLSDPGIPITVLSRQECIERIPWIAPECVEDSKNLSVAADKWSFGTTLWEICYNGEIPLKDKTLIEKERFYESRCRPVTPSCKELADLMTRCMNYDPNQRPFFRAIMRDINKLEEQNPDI
Kind of series: Binding activity test for JH2 domain of JAK1 (Tb-antibody/tracer FRET). The method, boiled down:
as §1

Another series concerns pSTAT1. Kind of series: Phosphorylation inhibition of STAT in human whole blood, IFN-alpha stimulated (flow cytometry). It counts as cell-based. Conditions: 20 min, read-out: IC50 on pSTAT1 inhibition in h WB. As to the method:
Phosphorylation Inhibition of STAT in Human PBMC and Human Whole Blood Testing:
The inhibitory potential of test articles in human PBMC and human whole blood assay was evaluated by the method of flow cytometry.
IFN-alpha will activate JAK1 and TYK2 kinase in T cells by binding to IFN receptors, and then lead to phosphorylation of STAT1 and STAT2. The phosphorylated STAT1 enter nuclear and promote transcription and expression of IFN-gamma. To evaluate the efficacy of TYK2i in T cells, freshly prepared human PBMC or freshly collected human whole blood will be stimulated with certain unit of human IFN-alpha (Universal Type I IFN(1MU), R&D, 11200-2) for 20 mins in incubator. After stimulation, fix cells with Phosflow™ Fix Buffer I (BD, 557870), and then collect fixed cells by centrifugation (500 g, 8 min). Wash cells once with pre-cooled PBS, and then permeabilize cells with cold Perm Buffer III buffer (BD, 558050) for 45 mins on ice. Collect cells by centrifugation (600 g, 8 min) and washed twice with cold PBS. Stain cells with anti-human CD3 (FITC Mouse Anti-Human CD3, BD, 555332) and anti-pSTAT1_Y701(Alexa Fluor 647 Mouse Anti-Stat1 (pY701), BD, 612597) antibodies. Detect pSTAT1 by flow cytometry (CytoFlex S) and analyze data with FlowJo and GraphPad Prism 8 software. IC50 values of test articles were determined using 4-parameter logistic equation.
In general terms: Flow cytometry measures light scatter and fluorescence of single cells or particles in a stream.

Series [4] is described as follows: Hepatocytes metabolic stability assay. Conditions: cryopreserved hepatocytes, human hepatocytes, 1.0×10^6 cells/mL; for half-life at 1 μM: read-out: Human hepatocyte stability T1/2. Type of series: in vitro ADME. As to the method:
Hepatocytes Metabolic Stability Assay
The vials of cryopreserved hepatocytes were removed from the liquid nitrogen container and immediately immersed in a 37° C. water bath for approximately 2 min. The melted ice pellets were transferred into tubes containing 50 mL of pre-warmed thawing medium and mixed well by gently inverting the tubes, and then centrifuged at 500 rpm for 3 minutes at room temperature. The supernatants were discarded, and cell pellets were re-suspended by adding appropriate volumes of pre-warmed incubation medium. The cells viability of each species was determined using Trypan Blue exclusion. Add 50 μL of pre-warmed 2× dosing solution to the wells designated for different time points. Then 50 μL of cells suspension (2×10^6 cells/mL) were added into appropriate wells at corresponding time points of T15, T30, T60, T120. Start timing and put the plate in an incubator at 37° C. For TO sample, add 300 μL of ACN containing internal standard to the wells, mix gently, then add 50 μL of pre-warmed hepatocytes solution (2×10^6 cells/mL). The concentration of test compound was 1 μM and 1.0×10^6 cells/mL in the final incubation. At each corresponding time point, test and control compounds reaction samples were stopped by adding 300 μL acetonitrile containing internal standard. All sample plates were thoroughly mixed and centrifuged at 5000×g for 15 minutes. The supernatants were diluted at ratio of 1:1 with ultra-pure water for test and positive controls. Then submitted for LC-MS/MS analysis.
The analyte/internal standard peak area ratios were converted to percentage remaining with the following equation: […]
The in vitro elimination constant, k of test compounds and control compounds were calculated from a log linear plot of % Remaining versus time, then the half-life (T1/2), the estimation of the in vitro hepatic intrinsic clearance (CLint) values were calculated from substrate disappearance rate in hepatocytes incubation: […]

The mark [5] stands for this setting: dog liver microsomes, read-out: Dog LM Clint.
The mark [6] stands for this setting: dog liver microsomes, read-out: Dog LM T½.
[7] abbreviates: human liver microsomes, read-out: Human LM Clint.
Setting [8] is: human liver microsomes, read-out: Human LM T½.
[9] abbreviates: rat liver microsomes, read-out: Rat LM Clint.
Where [10] appears, read: rat liver microsomes, read-out: Rat LM T½.
The mark [11] stands for this setting: human whole blood, IFN-alpha 20 mins, CD3 cells.

Structures are written as SMILES. Where two headings read alike, the source gives them in different places.

T2 sequence (P29597 589-875 limits assumed): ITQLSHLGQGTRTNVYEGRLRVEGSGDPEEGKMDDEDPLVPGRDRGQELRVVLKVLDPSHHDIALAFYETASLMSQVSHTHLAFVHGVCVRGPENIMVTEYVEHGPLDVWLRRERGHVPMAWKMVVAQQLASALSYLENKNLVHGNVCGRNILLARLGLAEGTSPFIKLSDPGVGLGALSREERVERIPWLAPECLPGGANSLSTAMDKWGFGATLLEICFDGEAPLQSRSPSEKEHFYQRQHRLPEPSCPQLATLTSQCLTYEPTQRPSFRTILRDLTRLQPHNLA
T1 sequence (P29597 whole entry P760L): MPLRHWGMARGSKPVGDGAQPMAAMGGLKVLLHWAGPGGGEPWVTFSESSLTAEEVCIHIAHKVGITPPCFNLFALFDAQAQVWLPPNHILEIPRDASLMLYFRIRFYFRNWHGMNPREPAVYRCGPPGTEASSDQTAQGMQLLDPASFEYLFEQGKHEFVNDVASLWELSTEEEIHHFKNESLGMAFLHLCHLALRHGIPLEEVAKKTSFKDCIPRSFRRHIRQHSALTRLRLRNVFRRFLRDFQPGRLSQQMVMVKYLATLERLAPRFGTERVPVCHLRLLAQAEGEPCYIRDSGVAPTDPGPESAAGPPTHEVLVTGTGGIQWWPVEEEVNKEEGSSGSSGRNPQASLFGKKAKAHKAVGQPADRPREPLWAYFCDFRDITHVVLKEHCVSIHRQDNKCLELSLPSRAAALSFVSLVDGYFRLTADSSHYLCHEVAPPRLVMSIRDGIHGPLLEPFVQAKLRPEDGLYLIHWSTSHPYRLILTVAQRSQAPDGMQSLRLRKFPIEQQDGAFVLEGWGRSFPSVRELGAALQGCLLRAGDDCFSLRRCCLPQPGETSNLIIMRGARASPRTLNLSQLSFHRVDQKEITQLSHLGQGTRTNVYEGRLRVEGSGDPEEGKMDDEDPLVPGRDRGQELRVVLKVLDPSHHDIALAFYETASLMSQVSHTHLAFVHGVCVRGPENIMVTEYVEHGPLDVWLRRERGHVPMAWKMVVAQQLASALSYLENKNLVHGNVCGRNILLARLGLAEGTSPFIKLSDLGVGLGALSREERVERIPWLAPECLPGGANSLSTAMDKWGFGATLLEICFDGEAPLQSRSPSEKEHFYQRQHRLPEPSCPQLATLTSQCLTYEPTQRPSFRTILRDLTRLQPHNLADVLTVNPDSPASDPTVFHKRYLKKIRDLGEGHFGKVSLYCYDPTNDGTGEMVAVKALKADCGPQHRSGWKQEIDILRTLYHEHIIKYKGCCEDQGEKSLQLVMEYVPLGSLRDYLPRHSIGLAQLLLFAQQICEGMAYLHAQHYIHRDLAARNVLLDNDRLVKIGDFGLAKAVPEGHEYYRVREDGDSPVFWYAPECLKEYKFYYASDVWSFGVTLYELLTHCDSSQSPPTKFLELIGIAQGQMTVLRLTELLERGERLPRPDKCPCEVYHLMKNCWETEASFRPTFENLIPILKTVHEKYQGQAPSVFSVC

Consider `CNC(=O)c1cnc(NC(=O)C2CC2)cc1Nc1nn(C)c2ccn(CC(F)(F)F)c(=O)c12` [Example 52, 6-(Cyclopropanecarboxamido)-N-methyl-4-((1-methyl-4-oxo-5-(2,2,2-trifluoroethyl)-4,5-dihydro-1H-pyrazolo[4,3-c]pyridin-3-yl)amino)nicotinamide], for which the GI50 in series [1] turned out to be 127 nM. The microsomal CLint at 1 μM was 11.1 µL/min/mg in series [2] (setting [5]), 8.05 µL/min/mg in series [2] (setting [7]) and 30.8 µL/min/mg in series [2] (setting [9]). The half-life at 1 μM in series [2] (setting [6]) came to 125 min; in series [2] (setting [8]) it was 172 min; in series [2] (setting [10]) it was 45 min. In series [3], the fraction unbound at 5 h is 0.041.

On to `CNC(=O)c1cnc(NC(=O)C2CC2)nc1Nc1cccc(-c2ncn(C)n2)c1OC` [Example 65, 2-(Cyclopropanecarboxamido)-4-((2-methoxy-3-(1-methyl-1H-1,2,4-triazol-3-yl)phenyl)amino)-N-methylpyrimidine-5-carboxamide], for which the GI50 in series [1] stood at 172 nM. Also, in series [3], the fraction unbound at 5 h is 0.061.

Usually IC50 stands for the concentration that inhibits the measured activity by half. `[2H]C([2H])([2H])NC(=O)c1cnc(Nc2ccn(C)n2)cc1Nc1cc(F)c2cnn(CC)c2c1OC` [Example 151, 4-((1-Ethyl-4-fluoro-7-methoxy-1H-indazol-6-yl)amino)-N-(methyl-d3)-6-((1-methyl-1H-pyrazol-3-yl)amino)nicotinamide]: the IC50 at TYK2-JH2 domain stood at 0.46 nM; on JAK1-JH2 domain, 13.1 nM; with pSTAT1 (setting [11]) it was 1860 nM. The JAK1/TYK2 selectivity at TYK2-JH2 domain came to 28.5. Besides, the GI50 in series [1] turned out to be 77.7 nM. Also, the microsomal CLint at 1 μM came out at 46.8 µL/min/mg in series [2] (setting [5]), 63.5 µL/min/mg in series [2] (setting [7]) and 66.3 µL/min/mg in series [2] (setting [9]). In addition, the half-life at 1 μM in series [2] (setting [6]) stood at 29.6 min; in series [2] (setting [8]) it was 21.8 min; in series [2] (setting [10]), 20.9 min; in series [4] it was 194 min. Also, the CLint scaled at 1 μM in series [4] (read-out: Human hepatocyte Clint(liver)) worked out at 9.1 mL/min/kg.

With `[2H]C([2H])([2H])NC(=O)c1cnc(Nc2cc(C)nc(C)n2)cc1Nc1cc(F)c2cnn(CC)c2c1OC` [Example 152, 6-((2,6-Dimethylpyrimidin-4-yl)amino)-4-((1-ethyl-4-fluoro-7-methoxy-1H-indazol-6-yl)amino)-N-(methyl-d3)nicotinamide], the IC50 at TYK2-JH2 domain is 0.171 nM; at JAK1-JH2 domain, 10.7 nM; in the series with pSTAT1 (setting [11]), 78.5 nM. Further, the JAK1/TYK2 selectivity on TYK2-JH2 domain was found to be 62.6. For the same compound, in series [1], the GI50 worked out at 27.9 nM. The microsomal CLint at 1 μM in series [2] (setting [5]) was 478 µL/min/mg; in series [2] (setting [7]), 42.4 µL/min/mg; in series [2] (setting [9]), 54.1 µL/min/mg. The half-life at 1 μM is 2.9 min in series [2] (setting [6]), 32.7 min in series [2] (setting [8]), 25.6 min in series [2] (setting [10]) and greater than 240 min in series [4].

For `[2H]C([2H])([2H])NC(=O)c1cnc(NC(=O)C2CC2)cc1Nc1ccn2ncc(CC#N)c2c1OC` [Example 239, 4-((3-(Cyanomethyl)-4-methoxypyrazolo[1,5-a]pyridin-5-yl)amino)-6-(cyclopropanecarboxamido)-N-(methyl-d3)nicotinamide], the IC50 on TYK2-JH2 domain came to 0.188 nM; on JAK1-JH2 domain it was 5.41 nM; in the series with pSTAT1 (setting [11]) it was 157 nM. Moreover, the JAK1/TYK2 selectivity on TYK2-JH2 domain amounted to 28.8. For the same compound, the GI50 in series [1] amounted to 84.7 nM.

For `[2H]C([2H])([2H])NC(=O)c1cnc(NC(=O)C2CC2)cc1Nc1ccc2ccn(CC)c2c1OC` [Example 244, 6-(Cyclopropanecarboxamido)-4-((1-ethyl-7-methoxy-1H-indol-6-yl)amino)-N-(methyl-d3)nicotinamide], the values for the IC50 on TYK2-JH2 domain, on JAK1-JH2 domain and in the series on pSTAT1 (Homo sapiens) were 0.125 nM, 4.58 nM and 190 nM, respectively. Also, on TYK2-JH2 domain, the JAK1/TYK2 selectivity was 36.6. In series [1], the GI50 was 18.1 nM.

For `C=CCn1cc(Nc2cc(NC(=O)C3CC3)ncc2C(=O)NC)c2c(=O)n(CC)ccc21` [Example 246, 4-((1-Allyl-5-ethyl-4-oxo-4,5-dihydro-1H-pyrrolo[3,2-c]pyridin-3-yl)amino)-6-(cyclopropanecarboxamido)-N-methylnicotinamide], the IC50 at TYK2-JH2 domain was 0.156 nM; at JAK1-JH2 domain, 11.8 nM; in the series with pSTAT1 (setting [11]), 287 nM. On TYK2-JH2 domain, the JAK1/TYK2 selectivity is on record as 75.9. For the same compound, the GI50 in series [1] is 75.7 nM.

With `[2H]C([2H])([2H])NC(=O)c1cnc(NC(=O)C2CC2)cc1Nc1ncc2cnn(CC(F)(F)F)c2c1OC` [Example 266, 6-(Cyclopropanecarboxamido)-4-((7-methoxy-1-(2,2,2-trifluoroethyl)-1H-pyrazolo[4,3-c]pyridin-6-yl)amino)-N-(methyl-d3)nicotinamide], the IC50 was 0.287 nM at TYK2-JH2 domain, 44.2 nM at JAK1-JH2 domain and 94.3 nM with pSTAT1 (setting [11]). Besides, at TYK2-JH2 domain, the JAK1/TYK2 selectivity amounted to 154. Moreover, the GI50 in series [1] is 76.2 nM.
